These results are taken from article PMC4311994, “Identification, Expression Profiling and Fluorescence-Based Binding Assays of a Chemosensory Protein Gene from the Western Flower Thrips, Frankliniella occidentalis” (PLoS ONE, 2015).

The target of assay [1] is recombinant FoccCSP protein (Frankliniella occidentalis, UniProt A0A0C5AYL1). The assay can be described thus: biochemical. The following applies: for Kd: Dissociation constant (KD), calculated from IC50 with Ki = [IC50]/(1+[1-NPN]/K1-NPN). It is filed as binding. The procedure:
(§1) Fluorescence binding assays were performed using a 970CRT spectrofluorophotometer (Lengguang, Shanghai, China) at 25°C with a 1 cm lightpath quartz cuvette and 10 nm slit width for excitation and emission. FoccCSP protein was diluted from a 2 μM stock solution with 50 mM Tris-HCl buffer (pH 7.4). The fluorescent probe N-phenyl-1-naphthylamine (1-NPN) was diluted from a 1 mM stock solution with methanol. The potential ligands were prepared in a similar manner as 1-NPN.
To measure the affinity of the 1-NPN fluorescent ligand for FoccCSP, the 2 μM protein solution prepared above was titrated with 1 mM 1-NPN to a final concentration between 2 and 20 μM. The affinities of the other potential ligands were measured using 1-NPN as a fluorescent reporter in competitive binding assays using 2 μM solutions of 1-NPN and FoccCSP and the addition of ligands to concentrations of 2–300 μM.
To determine the 1-NPN and FoccCSP binding constants, the intensity values corresponding to the maximum fluorescence emissions were plotted against the concentration of free ligand. The bound ligand was evaluated using the fluorescence intensity values assuming that the protein was 100% active and using a saturation stoichiometry of 1:1 protein:ligand. The curves were linearized using the Scatchard Plot program. The dissociation constants for the competitors were calculated from the corresponding IC50 values using the equation K i = [IC 50]/(1+[1-NPN]/K 1-NPN), where [1-NPN] is the free concentration of 1-NPN and K 1-NPN is the dissociation constant of the FoccCSP/1-NPN complex.

The target in assay [2] is T1, FoccCSP protein (Frankliniella occidentalis, UniProt A0A0C5AYL1).
T1 sequence (A0A0C5AYL1 20-128): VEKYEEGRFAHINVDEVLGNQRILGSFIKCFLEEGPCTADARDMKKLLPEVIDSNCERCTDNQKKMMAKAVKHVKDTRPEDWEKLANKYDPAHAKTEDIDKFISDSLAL
The assay can be described thus: Binding of the fluorescent probe 1-NPN to FoccCSP (titration, Scatchard plot). The conditions noted are these: 2 μM FoccCSP titrated with 1-NPN to 2–20 μM, read-out: FoccCSP/1-NPN complex dissociation constant. Here is the method: as §1
The intrinsic fluorescence of tryptophan was measured using a 2 μM FoccCSP protein solution. The excitation wavelength was 285 nm, and the emission spectrum was recorded between 290 and 530 nm. Quenching of the intrinsic fluorescence was measured in the presence of 2, 4, 6, 8, 10, 12, 14, 16, 18, and 20 μM 1-NPN under the same conditions.
To measure the affinity of the 1-NPN fluorescent ligand for FoccCSP, the 2 μM protein solution prepared above was titrated with 1 mM 1-NPN to a final concentration between 2 and 20 μM. […]
To determine the 1-NPN and FoccCSP binding constants, the intensity values corresponding to the maximum fluorescence emissions were plotted against the concentration of free ligand. The bound ligand was evaluated using the fluorescence intensity values assuming that the protein was 100% active and using a saturation stoichiometry of 1:1 protein:ligand. […]

[3] abbreviates: competitive displacement of 1-NPN, 2 μM 1-NPN and 2 μM FoccCSP, ligands 2–300 μM, 50 mM Tris-HCl pH 7.4, 25°C, read-out: IC50.

The term IC50 denotes the concentration that gives 50% inhibition.

Like-named read-outs stand apart in the source and are kept apart here.

For 3- phenyl aldehyde, the IC50 in assay [1] (setting [3]) is 108 µM.

Take `c1ccc(Nc2cccc3ccccc23)cc1` [1-NPN, N-phenyl-1-naphthylamine]: the Kd in assay [2] was determined as 11.8 µM.

In the case of `COc1ccc(C=O)cc1` [Anisic aldehyde], the IC50 in assay [1] (setting [3]) was 11.4 µM.

Consider `O=Cc1ccccc1` [Benzaldehyde], for which the IC50 in assay [1] was 52.5 µM. In addition, the Kd in assay [1] (2 μM 1-NPN and 2 μM FoccCSP) is 48.4 µM.

Consider `CC(=O)OCc1ccccc1` [Benzyl acetate], for which the IC50 in assay [1] was 98.2 µM. In addition, the Kd in assay [1] (2 μM 1-NPN and 2 μM FoccCSP) is 90.5 µM.

As for `OCc1ccccc1` [Benzyl alcohol], the concentration for half-maximal inhibition (IC50) in assay [1] was determined as 119 µM. For the same compound, the Kd in assay [1] (2 μM 1-NPN and 2 μM FoccCSP) is 109 µM.

`CC(C)=CCC[C@@H](C)CC=O` [Citronellal]: the IC50 in assay [1] (setting [3]) is 76.1 µM.

As for `CC(C)=CCCC(C)CCO` (centres unmarked) [Citronellol], in assay [1], the IC50 amounted to 75.8 µM. In addition, the Kd in assay [1] (2 μM 1-NPN and 2 μM FoccCSP) is 69.9 µM.

On to `CCc1ccccc1` [Ethyl benzene], for which the IC50 in assay [1] was 63.4 µM. Also, the Kd in assay [1] (2 μM 1-NPN and 2 μM FoccCSP) was 58.5 µM.

As for `CCOC(=O)c1cccnc1` [Ethyl nicotinate], in assay [1], the concentration for half-maximal inhibition (IC50) turned out to be 52 µM. Moreover, in assay [1] (2 μM 1-NPN and 2 μM FoccCSP), the Kd is 47.9 µM.

With `CC12CCC(CC1)C(C)(C)O2` [Eucalyptol], the half-maximal inhibitory concentration (IC50) in assay [1] was 92.4 µM. Besides, the Kd in assay [1] (2 μM 1-NPN and 2 μM FoccCSP) was 85.2 µM.

Take `C=CCc1ccc(O)c(OC)c1` [Eugenol]: the IC50 in assay [1] came to 96.4 µM. In assay [1] (2 μM 1-NPN and 2 μM FoccCSP), the Kd is 88.9 µM.

Take `CC(C)=CCC/C(C)=C/CO` [Geraniol]: the IC50 in assay [1] turned out to be 15.3 µM. Further, the Kd in assay [1] (2 μM 1-NPN and 2 μM FoccCSP) is 14.1 µM.

As to `CCCCCC` [Hexane], in assay [1], the IC50 amounted to 94.2 µM. In addition, in assay [1] (2 μM 1-NPN and 2 μM FoccCSP), the Kd is 86.9 µM.

For `C=CC(C)(O)CCC=C(C)C` (centres unmarked) [Linalool], the IC50 in assay [1] worked out at 85.6 µM. In addition, in assay [1] (2 μM 1-NPN and 2 μM FoccCSP), the Kd is 79 µM.

As to `COC(=O)c1ccncc1` [Methyl isonicotinate], the 50% inhibitory concentration (IC50) in assay [1] (setting [3]) stood at 52 µM.

`COC(=O)c1ccccc1O` [Methyl salicylate]: in assay [1], the IC50 is 35.2 µM. Further, the Kd in assay [1] (2 μM 1-NPN and 2 μM FoccCSP) was 32.5 µM.

For `CCCCCCCCC=O` [Pelargonic aldehyde], the IC50 in assay [1] (setting [3]) was found to be 79 µM.

As to `O=Cc1ccccc1O` [Salicylaldehyde], the “Displacement of 1-NPN from the FoccCSP/1-NPN complex, fluorescence intensity decreased to 50% of the initial value” in assay [1] (ligands up to 300 μM) is recorded as “unable to displace the fluorescent 1-NPN probe”.

Neroli: the 50% inhibitory concentration (IC50) in assay [1] (setting [3]) was 98.9 µM.
